From ChEMBL document CHEMBL1155376, “Structure-activity relationships of norepinephrine reuptake inhibitors with benzothiadiazine dioxide or dihydrosulfostyril cores” (Bioorg Med Chem Lett, 2010)

Assays:
[1] = molecular target: T1, Sodium-dependent dopamine transporter (Homo sapiens, UniProt Q01959); test: Displacement of [3H]WIN-35428 from human recombinant DAT expressed in CHO cells at 10 uM; format: cell-based
[2] = molecular target: T2, Sodium-dependent serotonin transporter (Homo sapiens, UniProt P31645); test: Inhibition of serotonin uptake at human SERT expressed in human JAR at 6 uM
Target sequence in this assay (P31645 whole entry, looked up): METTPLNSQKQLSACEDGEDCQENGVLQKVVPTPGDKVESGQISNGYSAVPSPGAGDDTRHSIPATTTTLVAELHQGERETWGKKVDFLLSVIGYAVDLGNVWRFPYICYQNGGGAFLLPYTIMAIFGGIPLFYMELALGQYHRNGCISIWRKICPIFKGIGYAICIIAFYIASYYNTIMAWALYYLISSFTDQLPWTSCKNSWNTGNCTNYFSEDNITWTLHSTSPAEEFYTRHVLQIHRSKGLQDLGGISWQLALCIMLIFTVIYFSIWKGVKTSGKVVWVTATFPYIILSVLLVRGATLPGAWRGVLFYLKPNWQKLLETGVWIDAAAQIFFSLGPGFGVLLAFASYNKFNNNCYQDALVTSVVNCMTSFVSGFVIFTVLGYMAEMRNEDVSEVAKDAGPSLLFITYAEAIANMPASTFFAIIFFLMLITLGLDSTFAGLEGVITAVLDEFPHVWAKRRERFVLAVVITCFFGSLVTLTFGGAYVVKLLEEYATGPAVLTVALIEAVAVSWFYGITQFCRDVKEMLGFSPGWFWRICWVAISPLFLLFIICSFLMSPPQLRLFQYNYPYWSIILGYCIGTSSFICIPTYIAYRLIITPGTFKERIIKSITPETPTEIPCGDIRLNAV

[3] = molecular target: T2, Sodium-dependent serotonin transporter; test: Inhibition of serotonin uptake at human SERT expressed in human JAR
Target sequence in this assay (P31645 whole entry): as the sequence (P31645 whole entry, looked up) above

[4] = molecular target: T1, Sodium-dependent dopamine transporter; test: Displacement of [3H]WIN-35428 from human recombinant DAT expressed in CHO cells at 1 uM; format: cell-based
Rattus norvegicus [5] = test: Thermoregulatory activity in OVX-induced thermoregulatory dysfunction Sprague-Dawley rat model assessed as maximum reduction in tail-skin temperature at 3 mg/kg, po by implanted temperature and physical activity transmitter; format: functional
Rattus norvegicus [6] = test: Duration of thermoregulatory activity in OVX-induced thermoregulatory dysfunction Sprague-Dawley rat model at 3 mg/kg, po by implanted temperature and physical activity transmitter; format: functional
[7] = molecular target: Sodium-dependent noradrenaline transporter (Homo sapiens, UniProt P23975)
Description: Inhibition of norepinephrine uptake at human NET expressed in MDCK-Net6 cells

[8] = Half life in rat liver microsomes at 1 uM
Rattus norvegicus [9] = test: Thermoregulatory activity in OVX-induced thermoregulatory dysfunction Sprague-Dawley rat model assessed as mean reduction in tail-skin temperature at 3 mg/kg, po by implanted temperature and physical activity transmitter; format: functional
[10] = molecular target: T1, Sodium-dependent dopamine transporter; test: biochemical
[11] = molecular target: T2, Sodium-dependent serotonin transporter; test: Inhibition of serotonin uptake at human SERT expressed in human JAR at 1 uM
Target sequence in this assay (P31645 whole entry, looked up): as above

Sodium-dependent noradrenaline transporter, sequence (P23975 whole entry): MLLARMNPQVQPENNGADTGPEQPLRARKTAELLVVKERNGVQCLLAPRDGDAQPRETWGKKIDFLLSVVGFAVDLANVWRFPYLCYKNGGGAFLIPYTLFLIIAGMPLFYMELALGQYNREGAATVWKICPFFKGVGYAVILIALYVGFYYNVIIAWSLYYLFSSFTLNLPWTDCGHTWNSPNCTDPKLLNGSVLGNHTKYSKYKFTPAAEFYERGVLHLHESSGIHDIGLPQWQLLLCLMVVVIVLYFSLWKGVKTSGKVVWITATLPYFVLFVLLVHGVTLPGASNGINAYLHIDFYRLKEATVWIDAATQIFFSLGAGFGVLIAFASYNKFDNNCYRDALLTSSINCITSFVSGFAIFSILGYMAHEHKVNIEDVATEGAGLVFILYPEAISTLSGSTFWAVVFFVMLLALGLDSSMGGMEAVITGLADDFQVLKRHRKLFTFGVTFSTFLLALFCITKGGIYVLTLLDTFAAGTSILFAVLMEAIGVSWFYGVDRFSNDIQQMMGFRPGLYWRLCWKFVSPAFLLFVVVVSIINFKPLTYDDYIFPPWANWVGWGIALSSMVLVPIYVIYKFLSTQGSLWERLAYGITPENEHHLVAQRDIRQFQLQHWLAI
T1 sequence (Q01959 whole entry): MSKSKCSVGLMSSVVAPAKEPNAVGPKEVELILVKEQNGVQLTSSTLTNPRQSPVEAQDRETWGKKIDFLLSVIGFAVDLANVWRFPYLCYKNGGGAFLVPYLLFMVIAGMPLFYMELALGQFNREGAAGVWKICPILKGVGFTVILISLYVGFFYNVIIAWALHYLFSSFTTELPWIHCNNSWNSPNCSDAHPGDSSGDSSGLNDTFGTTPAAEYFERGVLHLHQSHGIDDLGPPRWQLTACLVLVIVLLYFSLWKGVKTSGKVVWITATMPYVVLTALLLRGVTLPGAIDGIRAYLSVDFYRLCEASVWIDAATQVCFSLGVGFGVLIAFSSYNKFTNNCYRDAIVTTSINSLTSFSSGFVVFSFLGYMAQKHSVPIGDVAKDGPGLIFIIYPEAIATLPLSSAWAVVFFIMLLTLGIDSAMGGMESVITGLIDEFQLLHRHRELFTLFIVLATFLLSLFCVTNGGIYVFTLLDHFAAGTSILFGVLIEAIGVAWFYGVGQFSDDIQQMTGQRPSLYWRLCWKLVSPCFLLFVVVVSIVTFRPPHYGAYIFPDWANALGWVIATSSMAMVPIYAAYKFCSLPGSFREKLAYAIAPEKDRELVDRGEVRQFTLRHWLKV

| Compound | IC50 [3] [nM] | IC50 [7] [nM] | half-life at 1 µM [8] [min] | further results |
| --- | --- | --- | --- | --- |
| CNCCCC1Cc2ccccc2N(c2ccccc2F)S1(=O)=O (single isomer, unassigned; enantiomer I) [listing 1 of 2 here] |  |  |  | inhibition [1]: 21%; inhibition [2]: 11% |
| CNCCCN1Cc2ccccc2N(c2ccccc2)S1(=O)=O | 6000 |  |  | inhibition [4]: 17% |
| CNCCCC1Cc2ccccc2N(c2ccccc2F)S1(=O)=O (single isomer, unassigned; enantiomer I) [listing 2 of 2 here] |  | 55 | < 1 |  |
| CNCCCC1Cc2cc(F)ccc2N(c2ccccc2F)S1(=O)=O (single isomer, unassigned; enantiomer II) |  |  |  | inhibition [1]: 50% |
| CNCCCC1Cc2cc(F)ccc2N(c2ccccc2)S1(=O)=O (single isomer, unassigned; enantiomer II) | 240 |  |  | IC50 [10]: 4000 nM |
| CNCCCCN1Cc2ccccc2N(c2ccccc2F)S1(=O)=O | 2000 |  |  | inhibition [4]: 18% |
| CNCCCC1Cc2ccccc2N(c2ccccc2F)S1(=O)=O (single isomer, unassigned; enantiomer II) |  |  |  | inhibition [1]: 23%; inhibition [2]: 74% |
| CNCCCC1Cc2cc(F)ccc2N(c2ccccc2)S1(=O)=O (single isomer, unassigned; enantiomer I) |  |  |  | inhibition [2]: 85% |
| CNCCCC1Cc2ccccc2N(c2ccccc2)S1(=O)=O (single isomer, unassigned; enantiomer I) | 6900 | 88 | 3 |  |
| CNCCCCN1Cc2cc(F)ccc2N(c2ccccc2F)S1(=O)=O | 110 |  |  | inhibition [4]: 25% |
| CNCCCC1Cc2ccccc2N(c2c(F)cccc2F)S1(=O)=O (single isomer, unassigned; 16f) |  |  |  | inhibition [1]: 3.8% |
| CNCCCN1Cc2cc(F)ccc2N(c2ccccc2F)S1(=O)=O | 1500 |  |  | inhibition [4]: 2.5% |
| CNCCCC1Cc2ccccc2N(c2ccccc2F)S1(=O)=O.Cl (single isomer, unassigned; enantiomer II) |  | 3 | < 1 |  |
| CNCCN1Cc2ccccc2N(c2ccccc2F)S1(=O)=O |  |  |  | inhibition [11]: 24%; inhibition [4]: 24% |
| CNCCCN1Cc2ccccc2N(c2ccccc2F)S1(=O)=O | 5500 |  |  | inhibition [4]: -7% |
| CNCCCC1Cc2cc(F)ccc2N(c2c(F)cccc2F)S1(=O)=O (single isomer, unassigned) [listing 2 of 2 here] |  |  |  | inhibition [2]: 82% |
| CNCCCN1Cc2ccccc2N(c2ccc(C)cc2)S1(=O)=O |  | 140 |  |  |
| CNCCCC1Cc2ccccc2N(c2c(F)cccc2F)S1(=O)=O (single isomer, unassigned; 16e) [listing 1 of 2 here] |  |  |  | inhibition [2]: 40% |
| CNCCN1Cc2cc(F)ccc2N(c2ccccc2F)S1(=O)=O | 13300 |  |  | inhibition [4]: -5% |
| CNCCCC1Cc2ccccc2N(c2ccccc2)S1(=O)=O.Cl (single isomer, unassigned; enantiomer II) | 2500 | 12 | < 1 | IC50 [10]: 6600 nM |

More lines, main results first:

| IC50 [3] [nM] | IC50 [7] [nM] | half-life at 1 µM [8] [min] | Compound | further results |
| --- | --- | --- | --- | --- |
| 340 | 11 | > 30 | CNCCCC1Cc2cc(F)ccc2N(c2ccccc2F)S1(=O)=O.Cl (single isomer, unassigned; enantiomer II) | Activity (Rattus norvegicus [5]): 2.4 °C; Activity (Rattus norvegicus [6]): 6 h; Activity (Rattus norvegicus [9]): 1.5 °C |
| 8000 | 5 | 4 | CNCCCC1Cc2ccccc2N(c2c(F)cccc2F)S1(=O)=O.Cl (single isomer, unassigned; 16f) | Activity (Rattus norvegicus [5]): 0 °C; Activity (Rattus norvegicus [9]): 0 °C |
| 600 | 27 | > 30 | CNCCCC1Cc2cc(F)ccc2N(c2c(F)cccc2F)S1(=O)=O.Cl (single isomer, unassigned; enantiomer II) |  |
|  | 25 | > 30 | CNCCCC1Cc2cc(F)ccc2N(c2c(F)cccc2F)S1(=O)=O (single isomer, unassigned) [listing 1 of 2 here] |  |
|  | 52 | 3 | CNCCCC1Cc2ccccc2N(c2c(F)cccc2F)S1(=O)=O (single isomer, unassigned; 16e) [listing 2 of 2 here] |  |
| 720 | 93 | > 30 | CNCCCC1Cc2cc(F)ccc2N(c2ccccc2F)S1(=O)=O (single isomer, unassigned; enantiomer I) |  |
